Experimental data as given in patent US7820379B2, “Process for high throughput screening of CpG-based immuno-agonist/antagonist” (Coley Pharmaceutical GmbH, priority 2000, dated 2010).

T1: murine TLR9 (Mus musculus, UniProt Q9EQU3, L378S/Q579H/T325N/T573A/T867A)
T1 construct: additional primers were designed for amplification of the complete mouse TLR9 cDNA; expressed in transfected cells
T1 sequence (Q9EQU3 26-1032 T325N/L378S/T573A/Q579H/T867A): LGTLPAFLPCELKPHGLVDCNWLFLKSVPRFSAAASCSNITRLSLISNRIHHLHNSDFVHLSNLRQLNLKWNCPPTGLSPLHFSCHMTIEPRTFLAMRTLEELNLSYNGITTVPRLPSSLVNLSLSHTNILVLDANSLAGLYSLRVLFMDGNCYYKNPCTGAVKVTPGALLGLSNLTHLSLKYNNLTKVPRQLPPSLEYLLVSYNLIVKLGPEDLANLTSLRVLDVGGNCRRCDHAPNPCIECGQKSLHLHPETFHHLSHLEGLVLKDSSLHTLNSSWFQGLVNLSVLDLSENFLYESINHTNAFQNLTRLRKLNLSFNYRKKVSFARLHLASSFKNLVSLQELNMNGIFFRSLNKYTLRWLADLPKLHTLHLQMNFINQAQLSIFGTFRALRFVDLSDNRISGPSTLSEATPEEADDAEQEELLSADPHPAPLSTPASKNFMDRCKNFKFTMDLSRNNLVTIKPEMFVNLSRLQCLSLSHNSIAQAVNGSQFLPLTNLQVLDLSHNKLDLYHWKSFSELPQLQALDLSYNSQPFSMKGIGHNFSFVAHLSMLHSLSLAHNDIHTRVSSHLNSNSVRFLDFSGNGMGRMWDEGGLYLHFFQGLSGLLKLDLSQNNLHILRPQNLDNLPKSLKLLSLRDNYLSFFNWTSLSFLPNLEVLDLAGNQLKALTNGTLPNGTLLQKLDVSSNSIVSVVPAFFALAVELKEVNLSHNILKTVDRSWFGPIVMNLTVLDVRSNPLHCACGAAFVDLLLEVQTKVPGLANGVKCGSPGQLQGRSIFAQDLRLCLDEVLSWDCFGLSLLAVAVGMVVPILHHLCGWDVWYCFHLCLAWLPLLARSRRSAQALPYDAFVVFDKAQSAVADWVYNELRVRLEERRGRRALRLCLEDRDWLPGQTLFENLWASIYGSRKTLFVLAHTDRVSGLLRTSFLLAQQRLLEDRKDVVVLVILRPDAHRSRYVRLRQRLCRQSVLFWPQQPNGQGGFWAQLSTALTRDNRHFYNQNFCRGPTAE

B1: IL-4: the cytokine IL-4 (protein, UniProt P05112 25-153, looked up)
Interleukin-4: HKCDITLQEIIKTLNSLTEQKTLCTELTVTDIFAASKNTTEKETFCRAATVLRQFYSHHEKDTRCLGATAQQFHRHKQLIRFLKRLDRNLWGLAGLNSCPVKEANQSTLENFLERLKTIMREKYSKCSS

Experiments:
murine TLR9 = biological target: T1, murine TLR9; experiment: IL-8 production by ELISA in 293 cells transfected with murine TLR9; format: cell-based; details: 293 cells transiently transfected with mTLR9, stimulated with 1.0 μM CpG-ODN 1668; 48 h
Excerpt: Human fibroblast 293 cells were transiently transfected with mTLR9 and the NF-κB-luc construct (FIG. 2). Similar data was obtained for IL-8 production (not shown). Thus expression of TLR9 (human or mouse) in 293 cells results in a gain of function for CpG-DNA stimulation similar to hTLR4 reconstitution of LPS responses.
To generate stable clones expressing human TLR9, murine TLR9, or either TLR9 with the NF-κB-luc reporter plasmid, 293 cells were transfected in 10 cm plates (2×10^6 cells/plate) with 16 μg of DNA and selected with 0.7 mg/ml G418 (PAA Laboratories GmbH, Cölbe, Germany). The clones were also screened for IL-8 production or NF-κB-luciferase activity after stimulation with ODN. Four different types of clones were generated. • 293-hTLR9-luc: expressing human TLR9 and 6-fold NF-κB-luciferase reporter • 293-mTLR9-luc: expressing murine TLR9 and 6-fold NF-κB-luciferase reporter • 293-hTLR9: expressing human TLR9 • 293-mTLR9: expressing murine TLR9
It has been hypothesized that in order for DNA to enter the endosomal/lysosomal compartment a non-CpG dependent uptake receptor may be required. 293 cells were transiently transfected with mTLR9 treated with either medium only or 1.0 μM CpG-ODN 1668 (FIG. 15). […] IL-8 production was monitored after 48 h by ELISA.

TLR9 = experiment: Expression of TLR9; format: cell-based
Excerpt: The invention also embraces agents which bind selectively to certain regulatory sequences associated with the murine TLR9 nucleic acid molecules described herein. The agents include polypeptides which bind to transcription and translation regulatory sequences of murine TLR9, and antisense nucleic acids, both of which are described in greater detail below. The agents can inhibit or increase murine TLR9 expression, as well as signaling activity (antagonists and agonists, respectively). Agents which bind selectively to regulatory sequences associated with the murine TLR9 nucleic acid molecules can be identified using methods familiar to those of skill in the art. For example, a promoter region including at least 100, 200, 300, 400, 500, or more nucleotides upstream (5′) of the coding region of murine TLR9 can be identified by isolating, from appropriate genomic DNA, such nucleotide sequences using the sequences of SEQ ID NO:1 or SEQ ID NO:2 as primers or as probes, and then inserting the promoter region DNA into an appropriate expression vector so as to control the expression of TLR9 or some other reporter gene, introducing the TLR9 promoter vector into an appropriate host cell, and screening for TLR9 or reporter expression by those cells following their incubation in the presence and absence of various test agents. […]

Row | Molecule | antagonism of activation (IL-8 production) (murine TLR9) | expression of TLR9 (TLR9)
1 | 5′-CTCCTAGTGGGGGTGTCCTAT-3′ (listed as DNA, chemistry not given here) [PZ2] | in a dose-dependent manner, was able to antagonize the activation | 
2 | B1 |  | inhibits
